These results are taken from US20240343727A1, “PYRIDAZINONE OR PYRIDINONE COMPOUNDS, PREPARATION METHODS AND USES THEREOF” (InventisBio Co., Ltd., priority 2021, published 2024).

Molecules are shown by their SMILES.

As usually defined, the IC50 is the concentration needed to halve the response being measured. A high value points to lower potency.

For this test, the target named is T1, PARP7 (Homo sapiens, UniProt Q7Z3E1).
T1 sequence (Q7Z3E1 1-657): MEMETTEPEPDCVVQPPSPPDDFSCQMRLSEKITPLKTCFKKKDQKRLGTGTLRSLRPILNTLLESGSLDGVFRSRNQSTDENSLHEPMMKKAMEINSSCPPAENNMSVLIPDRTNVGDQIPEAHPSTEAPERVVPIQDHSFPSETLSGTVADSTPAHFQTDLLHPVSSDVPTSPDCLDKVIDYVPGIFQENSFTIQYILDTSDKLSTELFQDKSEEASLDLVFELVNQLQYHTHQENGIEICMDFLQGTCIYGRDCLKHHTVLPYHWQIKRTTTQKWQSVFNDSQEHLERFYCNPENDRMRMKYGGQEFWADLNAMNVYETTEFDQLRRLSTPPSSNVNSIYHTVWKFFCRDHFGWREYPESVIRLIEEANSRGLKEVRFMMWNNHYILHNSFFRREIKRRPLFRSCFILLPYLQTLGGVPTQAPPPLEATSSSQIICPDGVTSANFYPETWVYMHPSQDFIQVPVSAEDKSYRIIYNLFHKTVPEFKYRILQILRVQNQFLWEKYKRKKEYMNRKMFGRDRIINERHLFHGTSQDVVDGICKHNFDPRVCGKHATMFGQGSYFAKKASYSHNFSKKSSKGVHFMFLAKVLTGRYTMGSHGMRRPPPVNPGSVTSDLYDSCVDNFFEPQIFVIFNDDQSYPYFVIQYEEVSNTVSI
The test is described as follows: PARP7 TR-FRET assay (binding, displacement of biotinylated Probe A). To be noted: 6 nM PARP7, 2 nM Probe A, 25° C., 30 min. The method in brief: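 Compound displacement of biotinylated Probe A (2 nM) from PARP7 (6 nM) measured by TR-FRET in HEPES pH 8.0 buffer, 30 min at 25° C. Detection used ULight-anti 6xHis (4 nM) plus Eu-streptavidin (0.25 nM) for 30 min, reading the 665/615 nm ratio. % inhibition was taken against DMSO and no-enzyme wells, and IC50 from a Hill fit.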
On the technique in general: TR-FRET usually uses a lanthanide donor and a delayed reading to cut background.
Regarding `O=C(CC1CN(c2cc(C(F)(F)F)c(=O)[nH]n2)CCO1)N1CCN(c2ncc(C(F)(F)F)cn2)CC1` (single isomer, unassigned) [Compound 31], the IC50 is less than 100 nM.
The figure for `N#CC1(c2ccnc(N3CCN(C(=O)CC4CN(c5cc(C(F)(F)F)c(=O)[nH]n5)c5cc(Cl)ccc5O4)CC3)n2)CC1` (stereo not drawn) [Compound 150] is less than 100 nM; for `Cc1c(Oc2cccc(C(=O)N3CC[C@@H](Oc4ncc(C(F)(F)F)cn4)C3)c2)n[nH]c(=O)c1C(F)(F)F` [Compound 29] it is greater than 1000 nM.
As for `N#Cc1ccc(N2CCN(C(=O)CC3CN(c4cc(C(F)(F)F)c(=O)[nH]n4)c4cc(Cl)ccc4O3)CC2)nc1` (single isomer, unassigned) [Compound 225], the figure is 100 to 1000 nM; as for `C#Cc1cc(N2CCOCC2C(=O)N2CCN(c3ncc(C(F)(F)F)cn3)CC2)n[nH]c1=O` (stereo not drawn) [Compound 46], greater than 1000 nM.
Turning to `O=C(c1cncc(Oc2n[nH]c(=O)c(C(F)(F)F)c2N2CC3(CCCO3)C2)c1)N1CCN(c2ncc(Cl)cn2)CC1` [Compound 234], the IC50 was less than 100 nM.
For the compound `COCC(=O)Nc1ccc2c(c1)N(c1cc(C(F)(F)F)c(=O)[nH]n1)CC(CC(=O)N1CCN(c3ncc(C(F)(F)F)cn3)CC1)O2` (single isomer, unassigned) [Compound 283], the IC50 was less than 100 nM.
The figure for `O=C(CC1CN(c2cc(C(F)(F)F)c(=O)[nH]n2)c2cc(Cl)ccc2O1)N1CCN(c2ncc(C(F)(F)F)cn2)CC1` (single isomer, unassigned) [Compound 133] is less than 100 nM.
The figure for `O=C(CC1CN(c2n[nH]c(=O)c3cc(Cl)ccc23)CCO1)N1CCN(c2ncc(C(F)(F)F)cn2)CC1` (single isomer, unassigned) [Compound 121] is 100 to 1000 nM; for `O=C(COC1CCOc2c1n[nH]c(=O)c2C1CC1)N1CCN(c2ncc(C(F)(F)F)cn2)CC1` (single isomer, unassigned) [Compound 129] it is greater than 1000 nM; for `O=C(c1cccc(Oc2n[nH]c(=O)c(C(F)(F)F)c2N2CC3(COC3)C2)c1)N1CCN(c2ncc(C(F)(F)F)cn2)CC1` [Compound 165] it is less than 100 nM.
The figure for `O=C(c1cccc(Oc2n[nH]c(=O)c(C(F)(F)F)c2N2CC3(CCO3)C2)c1)N1CC2CCC(C1)N2c1ncc(C(F)(F)F)cn1` [Compound 257] is less than 100 nM; for `C[C@@H]1CN(C(=O)c2cncc(Oc3n[nH]c(=O)c(C(F)(F)F)c3N3CC4(C3)CC(F)(F)C4)c2)CCN1c1cnc(C(F)(F)F)cn1` [Compound 155] it is less than 100 nM; for `N#Cc1ccc(N2CCN(C(=O)CC3CN(c4cc(C(F)(F)F)c(=O)[nH]n4)c4cc(C(F)F)ccc4O3)CC2)nc1` (single isomer, unassigned) [Compound 327] it is less than 100 nM.
The compound `O=C(CC1CN(c2cc(C(F)(F)F)c(=O)[nH]n2)c2cc(C(F)F)ccc2O1)N1CCN(c2ncc(C(F)(F)F)cn2)CC1` (single isomer, unassigned) [Compound 227] had an IC50 of less than 100 nM.
The figure for `O=C(CC1CN(c2cc(C(F)(F)F)c(=O)[nH]n2)c2cc(F)ccc2O1)N1CCN(c2ncc(OC(F)(F)F)cn2)CC1` (single isomer, unassigned) [Compound 311] is less than 100 nM; for `O=C(OC1CN(c2cc(C(F)(F)F)c(=O)[nH]n2)CCC1(F)F)N1CCN(c2ncc(C(F)(F)F)cn2)CC1` (single isomer, unassigned) [Compound 117] it is greater than 1000 nM; for `Cn1ccc(-c2ccc3c(=O)[nH]nc(N4CCOC(CC(=O)N5CCN(c6ncc(C(F)(F)F)cn6)CC5)C4)c3c2)n1` (single isomer, unassigned) [Compound 259] it is less than 100 nM.
The compound `O=C(CC1CN(c2n[nH]c(=O)c3ccc(N4CC(F)(F)C4)cc23)CCO1)N1CCN(c2ncc(C(F)(F)F)cn2)CC1` (single isomer, unassigned) [Compound 220] came in with an IC50 of less than 100 nM.
As for `C[C@H]1CN(c2n[nH]c(=O)c3c(F)cccc23)C[C@H](CC(=O)N2CCN(c3ncc(C(F)(F)F)cn3)CC2)O1` (stereo in doubt) [Compound 91], the figure is 100 to 1000 nM; as for `O=C(COC1CCOc2c1n[nH]c(=O)c2C(F)F)N1CCN(c2ncc(C(F)(F)F)cn2)CC1` (single isomer, unassigned) [Compound 55], less than 100 nM.
The figure for `O=C(CC1CN(c2cc(C(F)(F)F)c(=O)[nH]n2)c2cc(F)ccc2O1)N1CCN(c2ncc(OC(F)(F)F)cn2)CC1` (single isomer, unassigned) [Compound 312] is 100 to 1000 nM.
The figure for `C[C@@H]1CN(C(=O)c2cc(Oc3n[nH]c(=O)c(C(F)(F)F)c3N3CC(O)C3)ccn2)CCN1c1ncc(C(F)(F)F)cn1` [Compound 340] is less than 100 nM.
In turn, `O=C(c1cc(Oc2n[nH]c(=O)c(C(F)(F)F)c2N2CC3(C2)CC(F)(F)C3)ccn1)N1CCN(c2ncc(Cl)cn2)CC1` [Compound 307] showed an IC50 of less than 100 nM.
As for `N#Cc1cnc(N2CCN(C(=O)c3cccc(Oc4n[nH]c(=O)c(C(F)(F)F)c4N4CC(C5CC5)C4)c3)CC2)nc1` [Compound 303], the figure is less than 100 nM; as for `Cc1c(Oc2cc(Cl)cc(C(=O)N3CCN(c4ncc(C(F)(F)F)cn4)CC3)c2)n[nH]c(=O)c1C(F)(F)F` [Compound 22], 100 to 1000 nM; as for `O=C(CC1CN(c2cc(C(F)(F)F)c(=O)[nH]n2)c2cc(C(F)F)ccc2O1)N1CCN(c2cnc(C(F)(F)F)cn2)CC1` (single isomer, unassigned) [Compound 146], 100 to 1000 nM.
The figure for `C#Cc1ccc2c(N3CCOC(CC(=O)N4CCN(c5ncc(C(F)(F)F)cn5)CC4)C3)n[nH]c(=O)c2c1` (single isomer, unassigned) [Compound 197] is less than 100 nM; for `O=C(c1cc(Oc2n[nH]c(=O)c(C(F)(F)F)c2N2CC3(C2)CC(F)(F)C3)ccn1)N1CCN(c2ncc(C3CC3)cn2)CC1` [Compound 308] it is less than 100 nM; for `O=C(CC1CN(c2n[nH]c(=O)c3ccc(F)cc23)CCO1)N1CCN(c2ncc(C(F)(F)F)cn2)CC1` (single isomer, unassigned) [Compound 52] it is less than 100 nM.
As for `O=C(c1cncc(Oc2n[nH]c(=O)c(C(F)(F)F)c2N2CC3(C2)CC(F)(F)C3)c1)N1CCN(c2cnc(C(F)(F)F)cn2)CC1` [Compound 334], the figure is less than 100 nM; as for `CCOC1CN(c2c(Oc3cccc(C(=O)N4CCN(c5ncc(C(F)(F)F)cn5)CC4)c3)n[nH]c(=O)c2C(F)(F)F)C1` [Compound 214], less than 100 nM.
`O=C(c1cccc(Oc2n[nH]c(=O)c(C(F)(F)F)c2N2CC3(CC3)C2)c1)N1CCN(c2ncc(C(F)(F)F)cn2)CC1` [Compound 59]: the IC50 was less than 100 nM.
The figure for `C#Cc1c(C)c(Oc2cccc(C(=O)N3CCN(c4ncc(C(F)(F)F)cn4)CC3)c2)n[nH]c1=O` [Compound 75] is less than 100 nM; for `O=C(CO[C@H]1C[C@H](CC2CC2)Oc2c1n[nH]c(=O)c2C(F)(F)F)N1CCN(c2ncc(C(F)(F)F)cn2)CC1` (stereo in doubt) [Compound 184] it is greater than 1000 nM.
As for `O=C(c1cccc(Oc2n[nH]c(=O)c(C(F)(F)F)c2N2CC3(CCC3)C2)c1)N1CCN(c2cnc(C(F)F)cn2)CC1` [Compound 189], the figure is less than 100 nM.
The figure for `O=C(c1cccc(Oc2n[nH]c(=O)c(C(F)(F)F)c2N2CC3(CCO3)C2)c1)N1CCN(c2ncc(C(F)(F)F)cn2)CC1` [Compound 212] is less than 100 nM; for `O=C(CC1CN(c2cc(C(F)(F)F)c(=O)[nH]n2)c2cc(F)ccc2O1)N1CCN(c2ncc(Br)cn2)CC1` (stereo not drawn) [Compound 142] it is less than 100 nM.
Consider `O=C(CC1CN(c2n[nH]c(=O)c3cc(F)ccc23)CCO1)N1CCN(c2ncc(C(F)(F)F)cn2)CC1` (single isomer, unassigned) [Compound 49], for which the IC50 was in the range of 100 to 1000 nM.
The figure for `CN(C)CCNc1c(Oc2cccc(C(=O)N3CCN(c4ncc(C(F)(F)F)cn4)CC3)c2)n[nH]c(=O)c1C(F)(F)F` [Compound 172] is less than 100 nM.
The figure for `O=C(CC1CN(c2cc(C(F)(F)F)c(=O)[nH]n2)c2ccc(Cl)cc2O1)N1CCN(c2ncc(C(F)(F)F)cn2)CC1` (single isomer, unassigned) [Compound 164] is 100 to 1000 nM.
The figure for `O=C(CC1CN(c2n[nH]c(=O)c3cccnc23)CCO1)N1CCN(c2ncc(C(F)(F)F)cn2)CC1` (single isomer, unassigned) [Compound 104] is less than 100 nM; for `C[C@@H]1CN(C(=O)c2cccc(Oc3n[nH]c(=O)c(C(F)(F)F)c3N3CC(C#N)C3)c2)CCN1c1ncc(C(F)(F)F)cn1` [Compound 350] it is less than 100 nM.
As for `O=C(c1cccc(Oc2n[nH]c(=O)cc2C(F)(F)F)c1)N1CCN(c2ncc(C(F)(F)F)cn2)CC1` [Compound 18], the IC50 is greater than 1000 nM.
With `O=C(CCO[C@H]1CCNc2c1n[nH]c(=O)c2C(F)(F)F)N1CCN(c2ncc(C(F)(F)F)cn2)CC1` (single isomer, unassigned) [Compound 7], the IC50 was 100 to 1000 nM.
